# According to PubChem BioAssay AID1963845 (Molecular Pharmacology Branch, DTP, NCI, 2024):
# Tested on: 429239-143-T-J1-PDC complex spheroid viability
# Test: Anticancer human tumor 429239-143-T-J1-PDC patient-derived small cell lung carcinoma cell line growth inhibition [POLQ]
# Details: for IC50: curve of first compound; for viability, T/C: stronger effect = lower value
# In short: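 Patient-derived tumour cells were co-cultured with HUVEC and mesenchymal stem cells as multicellular spheroids at 37 °C. They were treated with POLQ inhibitors (novobiocin, ART-558, RP6685) alone or combined with other agents. Top concentrations were at or near clinical Cmax (otherwise 10 microM; SN-38 at 1 microM), decreasing in half-log steps.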
# [1] = second compound 0.0316 µM, first compound 0.0316 µM
# [2] = second compound 0.0316 µM, first compound 0.1 µM
# [3] = second compound 0.0316 µM, first compound 0.316 µM
# [4] = second compound 0.0316 µM, first compound 1 µM
# [5] = second compound 0.0316 µM, first compound 3.16 µM
# [6] = second compound 0.0316 µM, first compound 10 µM
# [7] = second compound 0.1 µM, first compound 0.0316 µM
# [8] = second compound 0.1 µM, first compound 0.1 µM
# [9] = second compound 0.1 µM, first compound 0.316 µM
# [10] = second compound 0.1 µM, first compound 1 µM
# [11] = second compound 0.1 µM, first compound 3.16 µM
# [12] = second compound 0.1 µM, first compound 10 µM
# [13] = second compound 0.316 µM, first compound 0.0316 µM
# [14] = second compound 0.316 µM, first compound 0.1 µM
# [15] = second compound 0.316 µM, first compound 0.316 µM
# [16] = second compound 0.316 µM, first compound 1 µM
# [17] = second compound 0.316 µM, first compound 3.16 µM
# [18] = second compound 0.316 µM, first compound 10 µM
# [19] = second compound 1 µM, first compound 0.0316 µM
# [20] = second compound 1 µM, first compound 0.1 µM
# [21] = second compound 1 µM, first compound 0.316 µM
# [22] = second compound 1 µM, first compound 1 µM
# [23] = second compound 1 µM, first compound 3.16 µM
# [24] = second compound 1 µM, first compound 10 µM
# [25] = second compound 3.16 µM, first compound 0.0316 µM
# [26] = second compound 3.16 µM, first compound 0.1 µM
# [27] = second compound 3.16 µM, first compound 0.316 µM
# [28] = second compound 3.16 µM, first compound 1 µM
# [29] = second compound 3.16 µM, first compound 3.16 µM
# [30] = second compound 3.16 µM, first compound 10 µM
# [31] = second compound 10 µM, first compound 0.0316 µM
# [32] = second compound 10 µM, first compound 0.1 µM
# [33] = second compound 10 µM, first compound 0.316 µM
# [34] = second compound 10 µM, first compound 1 µM
# [35] = second compound 10 µM, first compound 3.16 µM
# [36] = second compound 10 µM, first compound 10 µM
# 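Note: luminescence signal used as surrogate measure of viable cells; spheroids exposed to compounds for seven days before readout.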
# 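Throughout, for viability, T/C: 100% = DMSO vehicle control viability as luminescence relative to vehicle.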
smiles,measurement,setting,value
CC1COCCN1c1cc(C2(S(C)(=N)=O)CC2)nc(-c2ccnc3[nH]ccc23)n1 (stereo not drawn) + COC1C(OC(N)=O)C(O)C(Oc2ccc3c(O)c(NC(=O)c4ccc(O)c(CC=C(C)C)c4)c(=O)oc3c2C)OC1(C)C,IC50,second compound 0.0316 µM,2270 nM
same,IC50,second compound 0.1 µM,2120 nM
same,IC50,second compound 0.316 µM,1990 nM
same,IC50,second compound 1 µM,2430 nM
same,IC50,second compound 3.16 µM,1880 nM
same,IC50,second compound 10 µM,2580 nM
same,"viability, T/C",[1],116%
same,"viability, T/C",[2],100%
same,"viability, T/C",[3],89.4%
same,"viability, T/C",[4],79.4%
same,"viability, T/C",[5],35.6%
same,"viability, T/C",[6],15.6%
same,"viability, T/C",[7],107%
same,"viability, T/C",[8],105%
same,"viability, T/C",[9],96.2%
same,"viability, T/C",[10],73.5%
same,"viability, T/C",[11],37.6%
same,"viability, T/C",[12],15.1%
same,"viability, T/C",[13],103%
same,"viability, T/C",[14],94.3%
same,"viability, T/C",[15],100%
same,"viability, T/C",[16],61.1%
same,"viability, T/C",[17],42.4%
same,"viability, T/C",[18],17.3%
same,"viability, T/C",[19],120%
same,"viability, T/C",[20],94.1%
same,"viability, T/C",[21],95.3%
same,"viability, T/C",[22],88.1%
same,"viability, T/C",[23],38.1%
same,"viability, T/C",[24],21.4%
same,"viability, T/C",[25],90.6%
same,"viability, T/C",[26],109%
same,"viability, T/C",[27],100%
same,"viability, T/C",[28],72.6%
same,"viability, T/C",[29],31.7%
same,"viability, T/C",[30],18.8%
same,"viability, T/C",[31],89.8%
same,"viability, T/C",[32],103%
same,"viability, T/C",[33],106%
same,"viability, T/C",[34],72.1%
same,"viability, T/C",[35],47%
same,"viability, T/C",[36],16.6%
C#Cc1c(F)ccc2cc(O)cc(-c3ncc4c(N5CC6CCC(C5)N6)nc(OCC56CCCN5CC(F)C6)nc4c3F)c12 (stereo not drawn) + COC1C(OC(N)=O)C(O)C(Oc2ccc3c(O)c(NC(=O)c4ccc(O)c(CC=C(C)C)c4)c(=O)oc3c2C)OC1(C)C,IC50,second compound 0.0316 µM,> 10000 nM
same,IC50,second compound 0.1 µM,> 10000 nM
same,IC50,second compound 0.316 µM,> 10000 nM
same,IC50,second compound 1 µM,> 10000 nM
same,IC50,second compound 3.16 µM,> 10000 nM
same,IC50,second compound 10 µM,> 10000 nM
same,"viability, T/C",[1],109%
same,"viability, T/C",[2],92.7%
same,"viability, T/C",[3],113%
same,"viability, T/C",[4],92.9%
same,"viability, T/C",[5],99.9%
same,"viability, T/C",[6],92.9%
same,"viability, T/C",[7],104%
same,"viability, T/C",[8],113%
same,"viability, T/C",[9],103%
same,"viability, T/C",[10],97.7%
same,"viability, T/C",[11],93.2%
same,"viability, T/C",[12],91.1%
same,"viability, T/C",[13],104%
same,"viability, T/C",[14],95.3%
same,"viability, T/C",[15],99.2%
same,"viability, T/C",[16],98.8%
same,"viability, T/C",[17],95.2%
same,"viability, T/C",[18],106%
same,"viability, T/C",[19],94.7%
same,"viability, T/C",[20],106%
same,"viability, T/C",[21],96%
same,"viability, T/C",[22],105%
same,"viability, T/C",[23],98.8%
same,"viability, T/C",[24],97.4%
same,"viability, T/C",[25],103%
same,"viability, T/C",[26],101%
same,"viability, T/C",[27],102%
same,"viability, T/C",[28],92.9%
same,"viability, T/C",[29],114%
same,"viability, T/C",[30],98.2%
same,"viability, T/C",[31],101%
same,"viability, T/C",[32],98.7%
same,"viability, T/C",[33],91.5%
same,"viability, T/C",[34],92.5%
same,"viability, T/C",[35],106%
same,"viability, T/C",[36],102%
COc1cccc(OCCCN)c1-c1cc(Nc2cnc(C#N)cn2)n[nH]1 + COC1C(OC(N)=O)C(O)C(Oc2ccc3c(O)c(NC(=O)c4ccc(O)c(CC=C(C)C)c4)c(=O)oc3c2C)OC1(C)C,IC50,second compound 0.0316 µM,82.1 nM
same,IC50,second compound 0.1 µM,69 nM
same,IC50,second compound 0.316 µM,69.6 nM
same,IC50,second compound 1 µM,64.5 nM
same,IC50,second compound 3.16 µM,57.9 nM
same,IC50,second compound 10 µM,54.9 nM
same,"viability, T/C","second compound 0.0316 µM, first compound 0.00316 µM",98.8%
same,"viability, T/C","second compound 0.0316 µM, first compound 0.01 µM",94.7%
same,"viability, T/C",[1],79.8%
same,"viability, T/C",[2],42.2%
same,"viability, T/C",[3],32%
same,"viability, T/C",[4],21.3%
same,"viability, T/C","second compound 0.1 µM, first compound 0.00316 µM",93.6%
same,"viability, T/C","second compound 0.1 µM, first compound 0.01 µM",92.8%
same,"viability, T/C",[7],66.6%
same,"viability, T/C",[8],42.1%
same,"viability, T/C",[9],26.6%
same,"viability, T/C",[10],21%
same,"viability, T/C","second compound 0.316 µM, first compound 0.00316 µM",99.7%
same,"viability, T/C","second compound 0.316 µM, first compound 0.01 µM",99%
same,"viability, T/C",[13],72.8%
same,"viability, T/C",[14],39.1%
same,"viability, T/C",[15],27.1%
same,"viability, T/C",[16],20.4%
same,"viability, T/C","second compound 1 µM, first compound 0.00316 µM",90.8%
same,"viability, T/C","second compound 1 µM, first compound 0.01 µM",99.1%
same,"viability, T/C",[19],70.9%
same,"viability, T/C",[20],37.3%
same,"viability, T/C",[21],30.3%
same,"viability, T/C",[22],24%
same,"viability, T/C","second compound 3.16 µM, first compound 0.00316 µM",96.3%
same,"viability, T/C","second compound 3.16 µM, first compound 0.01 µM",99.4%
same,"viability, T/C",[25],66.7%
same,"viability, T/C",[26],35.3%
same,"viability, T/C",[27],28.5%
same,"viability, T/C",[28],23.1%
same,"viability, T/C","second compound 10 µM, first compound 0.00316 µM",83.6%
same,"viability, T/C","second compound 10 µM, first compound 0.01 µM",83.5%
same,"viability, T/C",[31],64.7%
same,"viability, T/C",[32],33.5%
same,"viability, T/C",[33],34%
same,"viability, T/C",[34],23.4%
C=CC(=O)N1CCN(c2nc(=O)n(-c3c(C)ccnc3C(C)C)c3nc(-c4c(O)cccc4F)c(F)cc23)C(C)C1 (stereo not drawn) + Nc1ccc(C#CCN(C(=O)Cc2ncc(C(F)(F)F)cc2C(F)(F)F)c2ccc(F)cc2)nn1,IC50,second compound 0.0316 µM,> 10000 nM
same,IC50,second compound 0.1 µM,> 10000 nM
same,IC50,second compound 0.316 µM,> 10000 nM
same,IC50,second compound 1 µM,> 10000 nM
same,IC50,second compound 3.16 µM,> 10000 nM
same,IC50,second compound 10 µM,> 10000 nM
same,"viability, T/C",[1],101%
same,"viability, T/C",[2],97.2%
same,"viability, T/C",[3],97.2%
same,"viability, T/C",[4],114%
same,"viability, T/C",[5],108%
same,"viability, T/C",[6],93.8%
same,"viability, T/C",[7],97.7%
same,"viability, T/C",[8],113%
same,"viability, T/C",[9],108%
same,"viability, T/C",[10],114%
same,"viability, T/C",[11],102%
same,"viability, T/C",[12],96.8%
same,"viability, T/C",[13],108%
same,"viability, T/C",[14],97.6%
same,"viability, T/C",[15],99.6%
same,"viability, T/C",[16],103%
same,"viability, T/C",[17],109%
same,"viability, T/C",[18],94.1%
same,"viability, T/C",[19],98.9%
same,"viability, T/C",[20],103%
same,"viability, T/C",[21],99.3%
same,"viability, T/C",[22],112%
same,"viability, T/C",[23],98.4%
same,"viability, T/C",[24],91.8%
same,"viability, T/C",[25],107%
same,"viability, T/C",[26],105%
same,"viability, T/C",[27],109%
same,"viability, T/C",[28],115%
same,"viability, T/C",[29],104%
same,"viability, T/C",[30],97.3%
same,"viability, T/C",[31],104%
same,"viability, T/C",[32],98.8%
same,"viability, T/C",[33],111%
same,"viability, T/C",[34],108%
same,"viability, T/C",[35],95.7%
same,"viability, T/C",[36],96.8%
